Laboratory results as given in publication PMC11555526, “Development of 2-Aminoadenine-Based Proteolysis-Targeting Chimeras (PROTACs) as Novel Potent Degraders of Monopolar Spindle 1 and Aurora Kinases” (ACS Pharmacology & Translational Science, 2024).

Assays:
AURKB = system: AURKB; set-up: method as in PMID 32338514, PMID 27905678, PMID 27437075, PMID 30232224, PMID 27699881; settings: literature values, introduction and Figure 1; cited from earlier work
AURKA [1] = system: AURKA; set-up: method as in PMID 32338514, PMID 27905678, PMID 27437075, PMID 30232224, PMID 27699881; settings: literature values, introduction and Figure 1; cited from earlier work
TTK = system: TTK; set-up: method as in PMID 35084180; settings: reported PROTAC; cited from earlier work
AURKC = settings: read-out: AURKC IC50; literature value, introduction; cited from earlier work
human TTK = system: human TTK; set-up: method as in PMID 23940287, PMID 32338514, PMID 27905678, PMID 27437075, PMID 30232224; settings: literature values, introduction and Figure 1; cited from earlier work
[2] = biological target: T1, AURKB (MV4-11^AURKB-HiBiT cells) (Homo sapiens, UniProt Q96GD4); assay: HiBiT assay, AURKB degradation; format: cell-based; settings: 6 h treatment
T1 construct: expressed in transfected cells; host or cells: MV4-11, lentiviral transduction (pRRL-PGK vector)
T1 sequence (Q96GD4 1-345 isoform Q96GD4-5): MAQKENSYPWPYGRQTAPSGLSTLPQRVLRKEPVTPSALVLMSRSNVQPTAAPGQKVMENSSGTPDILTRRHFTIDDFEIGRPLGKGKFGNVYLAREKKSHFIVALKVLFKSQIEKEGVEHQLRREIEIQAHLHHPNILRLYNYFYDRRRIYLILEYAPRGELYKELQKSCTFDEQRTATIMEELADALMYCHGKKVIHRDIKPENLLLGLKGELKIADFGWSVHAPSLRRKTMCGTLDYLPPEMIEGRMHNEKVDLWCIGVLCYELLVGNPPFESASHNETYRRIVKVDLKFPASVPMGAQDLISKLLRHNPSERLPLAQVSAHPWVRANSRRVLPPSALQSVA
Summary of the method: (§1)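 MV4-11 lines stably expressing HiBiT-tagged AURKA, AURKB or TTK (lentiviral) were treated with serial compound dilutions for the indicated times. Remaining tagged protein was read by lytic HiBiT luminescence, and DC50 was fitted with a four-parameter dose–response equation using concentrations showing sigmoidal behaviour.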

[3] = biological target: T2, AURKA (MV4-11^AURKA-HiBiT cells) (Homo sapiens, UniProt O14965); assay: HiBiT assay, AURKA degradation; format: cell-based; settings: 6 h treatment, MV4-11^AURKA-HiBiT cells
T2 construct: expressed in transfected cells; host or cells: MV4-11, lentiviral transduction
T2 sequence (O14965 1-403): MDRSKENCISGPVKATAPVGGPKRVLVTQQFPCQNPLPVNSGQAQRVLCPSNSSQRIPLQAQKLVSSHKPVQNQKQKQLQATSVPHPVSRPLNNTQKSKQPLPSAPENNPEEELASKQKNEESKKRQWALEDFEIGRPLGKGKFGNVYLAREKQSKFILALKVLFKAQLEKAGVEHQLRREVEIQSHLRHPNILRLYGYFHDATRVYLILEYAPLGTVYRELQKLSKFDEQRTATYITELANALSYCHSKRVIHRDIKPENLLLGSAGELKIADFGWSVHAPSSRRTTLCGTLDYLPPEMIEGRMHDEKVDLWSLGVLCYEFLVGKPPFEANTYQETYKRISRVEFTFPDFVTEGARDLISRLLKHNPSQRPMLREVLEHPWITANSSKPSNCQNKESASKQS
Summary of the method: as §1

MV4-11 cells (naive) = assay: alamarBlue cell viability assay; format: cell-based, human; settings: Homo sapiens; 72 h treatment, MV4-11 cells (naive); read-out: EC50 (concentration that decreases cell viability by 50%)
Summary of the method: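 Cells exposed to compound concentration series or vehicle for 72 h (unless otherwise stated); alamarBlue added a few hours before end point. Read-out by fluorescence (ex 550/em 600 nm) or absorbance (570 nm, 600 nm reference).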

[4] = biological target: T3, TTK (MV4-11^HiBiT-TTK cells) (Homo sapiens, UniProt P33981); assay: HiBiT assay, TTK degradation; format: cell-based; set-up: key to Dmax (maximal degradation) TTK: compounds with degradation less than 15% reported as “inactive”; settings: 6 h treatment, MV4-11^HiBiT-TTK cells
T3 construct: expressed in transfected cells; host or cells: MV4-11, lentiviral transduction (pRRL-PGK-HiBiT entry vector)
T3 sequence (P33981 1-857): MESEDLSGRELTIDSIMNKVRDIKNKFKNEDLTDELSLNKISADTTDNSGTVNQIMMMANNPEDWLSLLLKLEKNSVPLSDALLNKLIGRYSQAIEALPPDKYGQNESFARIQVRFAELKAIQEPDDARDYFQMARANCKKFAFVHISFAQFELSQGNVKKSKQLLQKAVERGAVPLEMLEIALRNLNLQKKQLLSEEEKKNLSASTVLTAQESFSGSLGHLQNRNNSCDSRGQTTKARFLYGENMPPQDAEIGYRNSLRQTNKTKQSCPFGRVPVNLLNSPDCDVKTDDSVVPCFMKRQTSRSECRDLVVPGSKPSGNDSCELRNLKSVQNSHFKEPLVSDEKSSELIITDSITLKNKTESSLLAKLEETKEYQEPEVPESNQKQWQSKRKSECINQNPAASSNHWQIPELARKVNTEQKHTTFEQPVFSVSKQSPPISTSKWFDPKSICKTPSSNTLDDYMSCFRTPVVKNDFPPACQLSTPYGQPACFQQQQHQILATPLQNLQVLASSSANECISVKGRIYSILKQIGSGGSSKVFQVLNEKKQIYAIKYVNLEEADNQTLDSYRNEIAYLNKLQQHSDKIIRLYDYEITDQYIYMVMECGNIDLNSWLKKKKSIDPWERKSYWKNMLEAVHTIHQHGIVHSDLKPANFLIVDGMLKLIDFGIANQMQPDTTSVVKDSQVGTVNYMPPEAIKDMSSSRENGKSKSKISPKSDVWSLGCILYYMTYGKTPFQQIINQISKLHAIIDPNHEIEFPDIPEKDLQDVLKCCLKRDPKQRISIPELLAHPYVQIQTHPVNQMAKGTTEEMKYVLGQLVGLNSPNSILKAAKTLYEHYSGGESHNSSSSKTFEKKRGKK
Summary of the method: as §1

AURKA [5] = settings: reported PROTACs; cited from earlier work

O=C(Nc1c[nH]nc1-c1nc2ccc(CN3CCOCC3)cc2[nH]1)NC1CC1 [AT9283]
IC50 (AURKB): 3 nM
IC50 (AURKA [1]): 3 nM

CCC(=O)N[C@H]1CC[C@@H](n2c(=O)cc(C)c3cnc(Nc4ccc(N5CCN(C(=O)CCCC#Cc6ccc7c(c6)CN(C6CCC(=O)NC6=O)C7=O)CC5)cc4OC)nc32)CC1 (stereo partly drawn) [LJB-1113157]
DC50 (TTK): 3.1 nM

c1nc2nc(Nc3ccc(N4CCOCC4)cc3)nc(NC3CCCCC3)c2[nH]1 [Reversine]
IC50 (AURKC): 400 nM

Cc1cc(-c2cnn3c(NC[C@H]4C[C@@](C)(O)C4)cc(Oc4cccnc4)nc23)ccc1C(=O)NC1CC1 [CFI-402257]
IC50 (human TTK): 1 nM

COc1cc(N2CCC(O)CC2)ccc1Nc1nc(Nc2ccccc2S(=O)(=O)C(C)C)c2nc[nH]c2n1 [MPS1-IN-3, reference compound]
DC50 ([2]; read-out: DC50 (half-maximal degradation concentration) AURKB): 3210 nM
Dmax ([2]; read-out: Dmax (maximal degradation) AURKB): 43.3%
DC50 ([3]; read-out: DC50 (half-maximal degradation concentration) AURKA): 998 nM
Dmax ([3]; read-out: Dmax (maximal degradation) AURKA): 41.7%
EC50 (MV4-11 cells (naive)): 1270 nM
IC50 (human TTK): 50 nM
DC50 (half-maximal degradation concentration) TTK [4]: – (compounds with degradation less than 25% were not calculated and reported as “–”)
Dmax (maximal degradation) TTK [4]: inactive

O=C(COc1cccc2c1C(=O)N(C1CCC(=O)NC1=O)C2=O)NCCOCCOCCNC(=O)C1(Cc2cccc(Nc3nccs3)n2)CCC(Oc2cccc(Cl)c2F)CC1 (stereo not drawn) [JB300]
DC50 (AURKA [5]): 30 nM

COc1cc(Nc2ncc3c(n2)-c2ccc(Cl)cc2C(c2c(F)cccc2OC)=NC3)ccc1C(=O)NCCOCCOCCNC(=O)COc1cccc2c1C(=O)N(C1CCC(=O)NC1=O)C2=O (stereo not drawn) [JB170]
DC50 (AURKA [5]): 28 nM
